Results from patent US20120302530A1, “23-HYDROXY-BETULINIC ACID DERIVATIVES, PREPARATION METHODS AND USES THEREOF” (priority 2009, published 2012).
Like-named read-outs stand apart in the source and are kept apart here.

What was measured:
HIV-1Ada-M = assay: ELISA of HIV-1Ada-M p24 antigen expression in PBMC; type: cell-based; conditions: for therapeutic index TI: HIV-1Ada-M p24, PBMC, TI=IC50/EC50
From the text: (4) Quantitative Enzyme Linked Immunoadsorbent method (EIISA) detecting inhibiting effects of compounds to virus HIV-1Ada-Mp24 expression: (see JIANG, Haiou; WANG, Xu; L I, Rurun; CHEN, Dagang; B I, Kunlong, Experimental Research on Recipe Sanhuangsan Capsule Resisting AIDS Virus in Vitro, [J], Shandong Journal of Traditional Chinese medicine, 2005.8 (1):21-26).
Multi-heads sample injector is used to conduct triple dilution to the sample on the 96-hole culture plate. There are 6 dilutions, in which each dilution has 3 duplicate holes, and each hole is 100 ul. […] On the 96-hole flat culture plate, each hole is added with 25 ul virus stock solution containing 1000˜5000 pg/well P24 antigen, which is sufficiently blended. 75 ul mononuclear cell PBMC suspension liquid is added (3×10^5 cell numbers/hole). Upon placing in incubator of 37° C., 5% CO2 to the third day, 100 ul of culture medium is added to each hole. On the 7th day, cell culture supernatant is collected for p24 antigen test. According to p24 kit description, ELISA method is used to measure the virus HIV-1 p24 antigen concentration of each sample cell culture hole supernatant. The following formula is used to calculate the inhibition ratio of sample to virus.
Inhibition ratio of sample to virus p24 antigen (%)=(1−experimental hole OD value/cell+virus control hole OD value)×100%. Reed and Mueneh method is used to calculate EC50 of the test sample, and to further calculate the therapeutic index (TI) (TI=IC50/EC50). […] The positive control SCH-C, 23-hydroxyl-betulinic acid, compounds zhangnan-5, zhangnan-7 and zhangnan-8 all reach an inhibition ratio above 50% within the tested range. The positive control SCH-C inhibits HIV-1Ada-M p24 antigen expression. […] In addition, the inhibition effect to HIV-1Ada-M has significant dose-effect relationship with its concentration.

[1] = system: C8166 (human T cell line); assay: Toxicity to C8166 cells (MTT, day 7); type: cell-based; conditions: C8166, day 7, MTT
Protocol: (§1) (2) Toxicity of compounds zhangnan-5, zhangnan-7 and zhangnan-8 to C8166 and PBMC cells:
(§2) C8166 (human T cell line) and PBM (using lymphocyte isolation liquid to separate from normal human peripheral blood, and adhered mononuclear cell separated from PBMC) cells in exponential phase are taken. The cells are resuspended after centrifugal (1000 r•min-1, 10 min), and the concentrations are adjusted to 4×10^5/ml and 2×10^6/ml. The test samples are double diluted on the 96-hole cell culture plate. In total 6 gradients are set, each having 3 duplicate holes. In addition, positive control group and cell control group are set. Upon adding cell suspended liquid, the test samples are placed in incubator of 370C and 5% CO2 for incubation. On the seventh (7th) day, MTT method is used to determine toxicity of the samples to cells.
(§3) Inhibition ratio of cell growth (%)=(1−experimental hole OD value/control hole (OD value)×100%

HIV-1IIIB = assay: Inhibition of HIV-1IIIB induced syncytium formation in C8166 cells; type: cell-based; conditions: for therapeutic index TI: HIV-1IIIB syncytium, C8166, TI=IC50/EC50; for EC50: HIV-1IIIB, C8166 cells, third day after infection
From the text: (3) The inhibition effects of compounds zhangnan-5, zhangnan-7 and zhangnan-8 to virus HIV-1IIIB inducing C8166 cell to form syncytium: (see JIANG, Haiou; WANG, Xu; L I, Rurun; CHEN, Dagang; B I, Kunlong, Experimental Research on Recipe Sanhuangsan Capsule for Resisting AIDS virus in Vitro, [J]. Shandong Journal of Traditional Chinese medicine, 2005.8 (1):21-26).
The test sample is double diluted with culture medium on the 96-hole flat culture plate. There are 8 dilutions in total. Each hole 100 ul has 2 duplicate holes. In addition, there are positive control group, cell control group and virus control group. 80 ul C8166 cell of 4×10^5/ml is added into each hole, and then 20 ul virus HIV-1IIIB supernatant is added into each hole. The final volume of each hole is 200 ul. The sample is placed in incubator of 370C, 5% CO2 for cultivation. […] Under the inverted microscope, the number of syncytium formed by virus HIV-1IIIB inducing C8166 cell is counted. […] The following formula is used to calculate the inhibition ratio of the sample to syncytium.
Inhibition ratio formed by syncytium (%)=(1−experimental hole syncytium number/control hole syncytium number)×100%

[2] = when even reaching 500 mg/kg; cited from earlier work
normal person PBMC = assay: Toxicity to PBMC cells (MTT, day 7); type: cell-based, human; conditions: day 7, MTT
Protocol: as §1, §2, §3

Row | Structure (SMILES) | therapeutic index TI (HIV-1Ada-M) | therapeutic index TI (HIV-1IIIB) | EC50 (HIV-1IIIB) | also measured
1 | CCO/N=C(\c1ccc(Br)cc1)C1CCN(C2(C)CCN(C(=O)c3c(C)cc[n+]([O-])c3C)CC2)CC1 [SCH-C, reference compound] | 2583 |  |  | 
2 | Cc1cn([C@H]2C[C@H](N=[N+]=[N-])[C@@H](CO)O2)c(=O)[nH]c1=O [AZT, reference compound] |  | 2473 | 1.39 µM | IC50 ([1]; positive control, read-out: toxicity to 50% of C8166 cells): 3440 µM
3 | C=C(C)[C@@H]1CC[C@]2(C(=O)O)CC[C@]3(C)[C@H](CC[C@@H]4[C@@]5(C)CC[C@H](O)C(C)(C)[C@@H]5CC[C@]43C)[C@@H]12 [Betulinic acid, 3β-hydroxy-1up-20(29)-ene-28-oic acid] |  |  |  | toxic reaction [2]: no obvious toxic reaction
4 | C=C(C)[C@@H]1CC[C@]2(C(=O)O)CC[C@]3(C)[C@H](CC[C@@H]4[C@@]5(C)CC[C@H](O)[C@@](C)(CO)[C@@H]5CC[C@]43C)[C@@H]12 [23-hydroxyl-betulinic acid, reference compound] | 7.8 | 13 | 1.2 ± 0.23 µM | EC50 (HIV-1Ada-M; HIV-1Ada-M, PBMC, 7th day, ELISA, read-out: EC50, inhibition of p24 antigen expression): 1.9 ± 0.39 µM; IC50 ([1]; read-out: IC50 (50% inhibition concentration) to C8166 cell): 15.1 ± 3.57 µM; IC50 (normal person PBMC): 14.9 ± 3.46 µM
